In publication PMC9927415, “Tyrosine Kinase Inhibitors Display Potent Activity against Cryptosporidium parvum” (Microbiology Spectrum, 2022):

Columns and labels:
Assay in all cases: KINOMEscan competitive binding
[1] = molecular target: T1, TNK2 (Homo sapiens, UniProt Q07912); details: n=1, read-out: Percent inhibition, TNK2
T1 construct: purchased DiscoverX (KINOMEscan)

[2] = molecular target: T2, PAK1 (Homo sapiens, UniProt Q13153); details: n=1, read-out: Percent inhibition, PAK1
T2 construct: purchased DiscoverX (KINOMEscan)

[3] = molecular target: T3, PLK4 (Homo sapiens, UniProt O00444); details: n=1, read-out: Percent inhibition, PLK4
T3 construct: purchased DiscoverX (KINOMEscan)
T3 sequence (O00444 1-970): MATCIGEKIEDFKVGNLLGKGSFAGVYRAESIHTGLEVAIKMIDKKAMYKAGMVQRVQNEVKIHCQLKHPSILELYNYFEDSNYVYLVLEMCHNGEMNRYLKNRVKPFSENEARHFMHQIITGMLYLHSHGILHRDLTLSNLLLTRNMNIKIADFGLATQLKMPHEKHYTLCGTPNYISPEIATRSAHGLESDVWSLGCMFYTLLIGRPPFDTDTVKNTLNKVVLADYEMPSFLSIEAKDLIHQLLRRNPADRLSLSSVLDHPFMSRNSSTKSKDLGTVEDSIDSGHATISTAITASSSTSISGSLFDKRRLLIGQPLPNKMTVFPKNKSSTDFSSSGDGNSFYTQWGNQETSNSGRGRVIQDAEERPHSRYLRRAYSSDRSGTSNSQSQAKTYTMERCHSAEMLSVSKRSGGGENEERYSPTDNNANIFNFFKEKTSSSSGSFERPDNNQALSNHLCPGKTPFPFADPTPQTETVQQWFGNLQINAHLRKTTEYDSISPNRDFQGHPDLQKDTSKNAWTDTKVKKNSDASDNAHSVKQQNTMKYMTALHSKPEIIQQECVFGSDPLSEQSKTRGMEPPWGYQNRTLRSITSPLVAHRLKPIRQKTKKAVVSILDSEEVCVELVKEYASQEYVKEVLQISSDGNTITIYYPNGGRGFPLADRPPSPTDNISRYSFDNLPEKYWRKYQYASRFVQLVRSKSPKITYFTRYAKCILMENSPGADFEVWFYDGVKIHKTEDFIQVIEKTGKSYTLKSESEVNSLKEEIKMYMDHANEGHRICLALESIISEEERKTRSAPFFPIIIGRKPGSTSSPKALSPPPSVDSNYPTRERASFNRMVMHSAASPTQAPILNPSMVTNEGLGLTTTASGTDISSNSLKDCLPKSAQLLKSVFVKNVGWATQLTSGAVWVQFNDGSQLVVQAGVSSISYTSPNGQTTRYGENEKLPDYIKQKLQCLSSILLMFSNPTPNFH

[4] = molecular target: T4, YSK1 (Homo sapiens, UniProt O00506); details: n=1, read-out: Percent inhibition, YSK1
T4 construct: purchased DiscoverX (KINOMEscan)

[5] = molecular target: T5, PCTK1 (Homo sapiens, UniProt Q00536); details: n=1, read-out: Percent inhibition, PCTK1
T5 construct: purchased DiscoverX (KINOMEscan)

[6] = molecular target: T6, TLK1 (Homo sapiens, UniProt Q9UKI8); details: n=1, read-out: Percent inhibition, TLK1
T6 construct: purchased DiscoverX (KINOMEscan)
T6 sequence (Q9UKI8 1-766): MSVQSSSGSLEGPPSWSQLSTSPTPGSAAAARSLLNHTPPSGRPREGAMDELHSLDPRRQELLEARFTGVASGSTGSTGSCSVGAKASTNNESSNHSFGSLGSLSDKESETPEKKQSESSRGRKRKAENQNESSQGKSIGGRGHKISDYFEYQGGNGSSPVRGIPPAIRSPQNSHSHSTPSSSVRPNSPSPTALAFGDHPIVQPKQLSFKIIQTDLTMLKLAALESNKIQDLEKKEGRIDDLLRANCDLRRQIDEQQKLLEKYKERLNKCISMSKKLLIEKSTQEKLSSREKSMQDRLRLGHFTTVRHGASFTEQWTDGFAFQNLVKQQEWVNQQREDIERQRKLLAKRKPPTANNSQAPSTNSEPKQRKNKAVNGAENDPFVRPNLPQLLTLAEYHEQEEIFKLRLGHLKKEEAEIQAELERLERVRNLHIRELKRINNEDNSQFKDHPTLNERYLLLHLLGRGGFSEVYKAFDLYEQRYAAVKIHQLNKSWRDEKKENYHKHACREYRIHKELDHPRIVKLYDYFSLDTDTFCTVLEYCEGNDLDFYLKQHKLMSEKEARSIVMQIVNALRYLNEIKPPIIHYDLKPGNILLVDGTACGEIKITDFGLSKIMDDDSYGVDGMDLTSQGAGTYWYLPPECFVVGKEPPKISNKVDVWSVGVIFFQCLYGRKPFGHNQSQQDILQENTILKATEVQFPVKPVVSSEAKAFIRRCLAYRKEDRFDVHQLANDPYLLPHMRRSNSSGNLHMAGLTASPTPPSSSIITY

[7] = molecular target: T7, RPS6KA4(Kin.Dom.1) (Homo sapiens, UniProt O75676); details: n=1, read-out: Percent inhibition, RPS6KA4(Kin.Dom.1)
T7 construct: RPS6KA4(Kin.Dom.1); purchased DiscoverX (KINOMEscan)
T7 sequence (O75676 1-371 limits assumed): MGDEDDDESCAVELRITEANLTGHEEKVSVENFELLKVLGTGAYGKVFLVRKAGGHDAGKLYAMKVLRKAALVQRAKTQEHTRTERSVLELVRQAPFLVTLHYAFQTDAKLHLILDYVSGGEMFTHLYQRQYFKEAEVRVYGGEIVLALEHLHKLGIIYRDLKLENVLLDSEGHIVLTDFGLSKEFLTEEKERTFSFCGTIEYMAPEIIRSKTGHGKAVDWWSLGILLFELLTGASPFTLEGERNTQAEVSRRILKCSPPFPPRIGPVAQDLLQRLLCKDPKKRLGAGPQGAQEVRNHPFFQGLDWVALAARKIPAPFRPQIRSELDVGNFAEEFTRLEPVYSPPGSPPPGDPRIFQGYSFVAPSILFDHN

T1 sequence (Q07912 whole entry): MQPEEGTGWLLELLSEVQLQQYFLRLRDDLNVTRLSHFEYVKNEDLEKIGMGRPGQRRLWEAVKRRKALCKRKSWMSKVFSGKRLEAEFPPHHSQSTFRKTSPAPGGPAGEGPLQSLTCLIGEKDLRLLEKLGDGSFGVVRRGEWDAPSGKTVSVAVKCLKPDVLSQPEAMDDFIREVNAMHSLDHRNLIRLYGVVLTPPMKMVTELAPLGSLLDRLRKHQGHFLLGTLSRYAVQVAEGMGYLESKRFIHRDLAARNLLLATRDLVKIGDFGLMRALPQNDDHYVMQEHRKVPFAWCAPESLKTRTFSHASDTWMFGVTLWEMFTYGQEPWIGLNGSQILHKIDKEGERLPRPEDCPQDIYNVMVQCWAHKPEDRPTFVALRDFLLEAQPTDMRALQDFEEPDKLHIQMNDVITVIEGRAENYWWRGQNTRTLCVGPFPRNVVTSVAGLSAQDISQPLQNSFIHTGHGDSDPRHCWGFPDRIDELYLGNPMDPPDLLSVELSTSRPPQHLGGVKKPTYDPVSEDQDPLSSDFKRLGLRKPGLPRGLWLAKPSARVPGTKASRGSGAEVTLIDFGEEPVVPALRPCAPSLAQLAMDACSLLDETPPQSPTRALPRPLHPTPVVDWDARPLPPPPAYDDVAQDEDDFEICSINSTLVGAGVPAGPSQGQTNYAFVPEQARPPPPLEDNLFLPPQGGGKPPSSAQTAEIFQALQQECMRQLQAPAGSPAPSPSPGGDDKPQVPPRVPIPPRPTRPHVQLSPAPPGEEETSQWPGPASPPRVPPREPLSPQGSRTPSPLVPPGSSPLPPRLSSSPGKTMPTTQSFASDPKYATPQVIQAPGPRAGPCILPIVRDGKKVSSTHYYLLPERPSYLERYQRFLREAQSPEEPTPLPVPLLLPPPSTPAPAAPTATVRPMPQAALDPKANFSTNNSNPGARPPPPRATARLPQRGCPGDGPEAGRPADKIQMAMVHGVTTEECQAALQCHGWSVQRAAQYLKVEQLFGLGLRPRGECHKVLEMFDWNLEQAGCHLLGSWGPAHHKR
T4 sequence (O00506 whole entry): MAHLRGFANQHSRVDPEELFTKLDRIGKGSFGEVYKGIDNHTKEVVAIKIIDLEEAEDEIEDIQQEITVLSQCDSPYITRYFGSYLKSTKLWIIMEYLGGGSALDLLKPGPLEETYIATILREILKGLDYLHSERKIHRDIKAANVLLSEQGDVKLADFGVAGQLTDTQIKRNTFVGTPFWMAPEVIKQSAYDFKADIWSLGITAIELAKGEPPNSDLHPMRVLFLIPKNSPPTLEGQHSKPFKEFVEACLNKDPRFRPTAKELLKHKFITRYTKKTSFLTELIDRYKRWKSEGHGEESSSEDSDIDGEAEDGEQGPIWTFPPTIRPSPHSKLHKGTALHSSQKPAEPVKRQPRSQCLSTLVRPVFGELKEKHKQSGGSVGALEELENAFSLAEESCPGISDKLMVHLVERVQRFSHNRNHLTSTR
T2 sequence (Q13153 whole entry): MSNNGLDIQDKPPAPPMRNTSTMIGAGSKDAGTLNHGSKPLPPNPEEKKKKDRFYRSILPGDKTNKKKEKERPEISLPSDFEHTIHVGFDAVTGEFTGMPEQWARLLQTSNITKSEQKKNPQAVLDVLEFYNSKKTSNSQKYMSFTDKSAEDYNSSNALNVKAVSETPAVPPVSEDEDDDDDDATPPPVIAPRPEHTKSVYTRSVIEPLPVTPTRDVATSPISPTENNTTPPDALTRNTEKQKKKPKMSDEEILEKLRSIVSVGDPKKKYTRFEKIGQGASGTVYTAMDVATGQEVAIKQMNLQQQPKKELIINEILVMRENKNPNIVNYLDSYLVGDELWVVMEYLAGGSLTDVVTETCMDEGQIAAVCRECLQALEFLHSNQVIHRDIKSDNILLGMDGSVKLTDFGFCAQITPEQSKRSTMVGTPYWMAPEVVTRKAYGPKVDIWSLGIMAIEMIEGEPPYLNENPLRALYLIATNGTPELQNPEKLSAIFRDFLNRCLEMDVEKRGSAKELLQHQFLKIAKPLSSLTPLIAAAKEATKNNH
T5 sequence (Q00536 whole entry): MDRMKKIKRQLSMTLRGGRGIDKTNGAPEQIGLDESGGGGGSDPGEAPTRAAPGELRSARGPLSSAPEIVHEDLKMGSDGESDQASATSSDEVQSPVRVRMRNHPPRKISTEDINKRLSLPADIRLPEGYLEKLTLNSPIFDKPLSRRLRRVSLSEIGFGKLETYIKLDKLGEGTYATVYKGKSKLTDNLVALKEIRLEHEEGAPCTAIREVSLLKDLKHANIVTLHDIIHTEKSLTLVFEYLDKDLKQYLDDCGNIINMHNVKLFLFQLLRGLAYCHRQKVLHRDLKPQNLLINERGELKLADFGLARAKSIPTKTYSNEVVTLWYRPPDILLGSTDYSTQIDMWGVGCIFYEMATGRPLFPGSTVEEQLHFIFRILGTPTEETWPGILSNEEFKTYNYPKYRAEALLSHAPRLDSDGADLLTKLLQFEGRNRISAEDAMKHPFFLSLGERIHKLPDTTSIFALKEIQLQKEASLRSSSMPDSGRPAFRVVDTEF

SMILES	inhibition at 10 µM [1] [%]	inhibition at 10 µM [2] [%]	inhibition at 10 µM [3] [%]	inhibition at 10 µM [4] [%]	inhibition at 10 µM [5] [%]	inhibition at 10 µM [6] [%]	inhibition at 10 µM [7] [%]
C[C@@H](Oc1cc(-c2cnc3ccccn23)sc1C(N)=O)c1ccccc1Cl [Compound 8]	0	0	76.4	0	0	0	0
Cc1ccc(O)cc1N(C)c1ccnc(Nc2cccc(S(N)(=O)=O)c2)n1 [Compound 4]	99.8	98.5	99.4	0	96.9	0	0
COc1cc(Nc2nccc(-c3sc(N)nc3-c3cccc(NC(=O)c4c(F)cccc4F)c3)n2)cc(OC)c1OC [Compound 7]	100	99.8	99.8	96.3	0	0	98.9
CN1CCN(c2ccc(Nc3nccc(-c4cnn5ncccc45)n3)cc2C#N)CC1 [Compound 1]	73.2	99.8	99.7	90.8	100	99.2	0
Fc1cccc(COc2ccc(Nc3ncnc4c3CN(CCN3CCOCC3)CC4)cc2Cl)c1 [Compound 6]	0	0	0	0	0	0	0
Cc1ccc(O)cc1Nc1ccnc(Nc2cccc(C(N)=O)c2)n1 [Compound 3]	98.8	79.3	95.2	0	0	0	0
Clc1ccc(Nc2ncc(-c3ccccc3)s2)cc1 [Compound 10]	0	0	0	0	0	0	0
COc1ccc(Nc2nccc(-c3cnn4ncccc34)n2)cc1 [Compound 2]	78.1	0	99	0	100	0	0
c1ccc(COc2cccc(-c3ccnc4[nH]ccc34)c2)cc1 [Compound 9]	0	0	0	0	0	0	0
Nc1ncc2c(-c3ccncc3)c[nH]c2n1 [Compound 11]	0	0	84.4	0	78.2	0	0
